Source: ChEMBL document CHEMBL1201862, “PubChem BioAssay data set” (2004)
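These data come from cells grown in 96-well plates and exposed to compound for 48 hours at five concentrations. GI50 marks 50% less growth.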 Active and inactive are the calls of the source. Rule as the data show it: active = GI50 up to about 1.1 µM and inactive = higher.

Legend:
Test in all cases: DTP human tumour cell line panel, 48 h
SF-295 = tested on: SF-295
U-251 = tested on: U-251
UO-31 = tested on: UO-31
M14 = tested on: M14
HT-29 = tested on: HT-29
CCRF-CEM = tested on: CCRF-CEM
SK-OV-3 = tested on: SK-OV-3
SR = tested on: SR
A549 = tested on: A549
SK-MEL-28 = tested on: SK-MEL-28
NCI-H460 = tested on: NCI-H460
A498 = tested on: A498
SK-MEL-2 = tested on: SK-MEL-2
SF-539 = tested on: SF-539
SF-268 = tested on: SF-268
IGROV-1 = tested on: IGROV-1
786-0 = tested on: 786-0
ACHN = tested on: ACHN
K562 = tested on: K562
NCI-H522 = tested on: NCI-H522
NCI-H23 = tested on: NCI-H23
LXFL 529 = tested on: LXFL 529
KM-20L2 = tested on: KM-20L2
RPMI-8226 = tested on: RPMI-8226
UACC-62 = tested on: UACC-62
HL-60 = tested on: HL-60
SNB-19 = tested on: SNB-19
NCI-H226 = tested on: NCI-H226
SNB-78 = tested on: SNB-78
Malme-3M = tested on: Malme-3M
OVCAR-8 = tested on: OVCAR-8
HOP-18 = tested on: HOP-18
OVCAR-5 = tested on: OVCAR-5
XF498 = tested on: XF498
RXF 631 = tested on: RXF 631
KM12 = tested on: KM12
HOP-92 = tested on: HOP-92
LOX IMVI = tested on: LOX IMVI
CAKI-1 = tested on: CAKI-1
EKVX = tested on: EKVX
DMS-273 = tested on: DMS-273
MOLT-4 = tested on: MOLT-4
HCT-116 = tested on: HCT-116
COLO 205 = tested on: COLO 205
M19-MEL = tested on: M19-MEL
SNB-75 = tested on: SNB-75
OVCAR-3 = tested on: OVCAR-3
SN12C = tested on: SN12C
DLD-1 = tested on: DLD-1
SW-620 = tested on: SW-620
TK-10 = tested on: TK-10
RXF 393 = tested on: RXF 393
DMS-114 = tested on: DMS-114
HCT-15 = tested on: HCT-15
SK-MEL-5 = tested on: SK-MEL-5
HOP-62 = tested on: HOP-62
HCC 2998 = tested on: HCC 2998
OVCAR-4 = tested on: OVCAR-4
UACC-257 = tested on: UACC-257

With `CCOC(=O)C/C(N)=C(\C#N)C(=O)OCC` the GI50 (SF-295) was > 100 µM (inactive), the GI50 (U-251) was > 100 µM (inactive) and the GI50 (UO-31) was > 100 µM (inactive). For the same molecule, the GI50 (M14) was > 100 µM (inactive), the GI50 (HT-29) was > 100 µM (inactive) and the GI50 (CCRF-CEM) was > 100 µM (inactive). For the same molecule, the GI50 (SK-OV-3) was > 100 µM (inactive), the GI50 (SR) was > 100 µM (inactive) and the GI50 (A549) was > 100 µM (inactive). For the same molecule, the GI50 (SK-MEL-28) was > 100 µM (inactive), the GI50 (NCI-H460) was > 100 µM (inactive) and the GI50 (A498) was > 100 µM (inactive). The GI50 (SK-MEL-2) was > 100 µM (inactive), the GI50 (SF-539) was > 100 µM (inactive) and the GI50 (SF-268) was > 100 µM (inactive). The GI50 (IGROV-1) was > 100 µM (inactive), the GI50 (786-0) was > 100 µM (inactive) and the GI50 (ACHN) was > 100 µM (inactive). For the same molecule, the GI50 (K562) was > 100 µM (inactive), the GI50 (NCI-H522) was > 100 µM (inactive) and the GI50 (NCI-H23) was > 100 µM (inactive). For the same molecule, the GI50 (LXFL 529) was > 100 µM (inactive), the GI50 (KM-20L2) was > 100 µM (inactive) and the GI50 (RPMI-8226) was > 100 µM (inactive). For the same molecule, the GI50 (UACC-62) was > 100 µM (inactive), the GI50 (HL-60) was > 100 µM (inactive) and the GI50 (SNB-19) was > 100 µM (inactive). For the same molecule, the GI50 (NCI-H226) was > 100 µM (inactive), the GI50 (SNB-78) was > 100 µM (inactive) and the GI50 (Malme-3M) was > 100 µM (inactive). The GI50 (OVCAR-8) was > 100 µM (inactive), the GI50 (HOP-18) was > 100 µM (inactive) and the GI50 (OVCAR-5) was > 100 µM (inactive). For the same molecule, the GI50 (XF498) was > 100 µM (inactive), the GI50 (RXF 631) was > 100 µM (inactive) and the GI50 (KM12) was > 100 µM (inactive). The GI50 (HOP-92) was > 100 µM (inactive), the GI50 (LOX IMVI) was > 100 µM (inactive) and the GI50 (CAKI-1) was > 100 µM (inactive). The GI50 (EKVX) was > 100 µM (inactive), the GI50 (DMS-273) was > 100 µM (inactive) and the GI50 (MOLT-4) was > 100 µM (inactive). The GI50 (HCT-116) was > 100 µM (inactive), the GI50 (COLO 205) was > 100 µM (inactive) and the GI50 (M19-MEL) was > 100 µM (inactive). For the same molecule, the GI50 (SNB-75) was > 100 µM (inactive), the GI50 (OVCAR-3) was > 100 µM (inactive) and the GI50 (SN12C) was > 100 µM (inactive). For the same molecule, the GI50 (DLD-1) was > 100 µM (inactive), the GI50 (SW-620) was > 100 µM (inactive) and the GI50 (TK-10) was > 100 µM (inactive). For the same molecule, the GI50 (RXF 393) was > 100 µM (inactive), the GI50 (DMS-114) was > 100 µM (inactive) and the GI50 (HCT-15) was greater than 100 µM. For the same molecule, the GI50 (SK-MEL-5) was > 100 µM (inactive).
In the case of `NC(S)=Nc1cc(Cl)ccc1Cl`, the GI50 (SF-295) is reported as > 100 µM (inactive), the GI50 (U-251) is reported as > 100 µM (inactive) and the GI50 (UO-31) is reported as > 100 µM (inactive). For the same molecule, the GI50 (M14) was > 100 µM (inactive), the GI50 (HT-29) was > 100 µM (inactive) and the GI50 (CCRF-CEM) was > 100 µM (inactive). For the same molecule, the GI50 (SK-OV-3) was > 100 µM (inactive), the GI50 (SR) was > 100 µM (inactive) and the GI50 (A549) was > 100 µM (inactive). The GI50 (SK-MEL-28) was > 100 µM (inactive), the GI50 (NCI-H460) was > 100 µM (inactive) and the GI50 (A498) was > 100 µM (inactive). For the same molecule, the GI50 (SK-MEL-2) was > 100 µM (inactive), the GI50 (SF-539) was > 100 µM (inactive) and the GI50 (SF-268) was > 100 µM (inactive). For the same molecule, the GI50 (IGROV-1) was > 100 µM (inactive), the GI50 (ACHN) was > 100 µM (inactive) and the GI50 (K562) was > 100 µM (inactive). For the same molecule, the GI50 (NCI-H522) was > 100 µM (inactive), the GI50 (NCI-H23) was > 100 µM (inactive) and the GI50 (LXFL 529) was > 100 µM (inactive). For the same molecule, the GI50 (KM-20L2) was > 100 µM (inactive), the GI50 (RPMI-8226) was > 100 µM (inactive) and the GI50 (UACC-62) was > 100 µM (inactive). The GI50 (HL-60) was > 100 µM (inactive), the GI50 (SNB-19) was > 100 µM (inactive) and the GI50 (NCI-H226) was > 100 µM (inactive). The GI50 (SNB-78) was > 100 µM (inactive), the GI50 (Malme-3M) was > 100 µM (inactive) and the GI50 (OVCAR-8) was 62.1 µM (inactive). For the same molecule, the GI50 (HOP-62) was > 100 µM (inactive), the GI50 (HOP-18) was > 100 µM (inactive) and the GI50 (HCC 2998) was > 100 µM (inactive). The GI50 (OVCAR-5) was > 100 µM (inactive), the GI50 (XF498) was 94.6 µM (inactive) and the GI50 (RXF 631) was > 100 µM (inactive). The GI50 (KM12) was > 100 µM (inactive), the GI50 (HOP-92) was 85.1 µM (inactive) and the GI50 (LOX IMVI) was > 100 µM (inactive). For the same molecule, the GI50 (OVCAR-4) was > 100 µM (inactive), the GI50 (UACC-257) was > 100 µM (inactive) and the GI50 (CAKI-1) was > 100 µM (inactive). The GI50 (EKVX) was > 100 µM (inactive), the GI50 (DMS-273) was > 100 µM (inactive) and the GI50 (MOLT-4) was > 100 µM (inactive). For the same molecule, the GI50 (HCT-116) was > 100 µM (inactive), the GI50 (COLO 205) was > 100 µM (inactive) and the GI50 (M19-MEL) was > 100 µM (inactive). For the same molecule, the GI50 (SNB-75) was 55.7 µM (inactive), the GI50 (OVCAR-3) was > 100 µM (inactive) and the GI50 (SN12C) was > 100 µM (inactive). The GI50 (DLD-1) was > 100 µM (inactive), the GI50 (SW-620) was > 100 µM (inactive) and the GI50 (TK-10) was > 100 µM (inactive). For the same molecule, the GI50 (RXF 393) was 94 µM (inactive), the GI50 (DMS-114) was > 100 µM (inactive) and the GI50 (HCT-15) was greater than 100 µM. For the same molecule, the GI50 (SK-MEL-5) was > 100 µM (inactive).
